Values belong to the compound of their own block, whether it stands above or below them.
Legend:
IMR-32 tumors = experiment: IMR-32 neuroblastoma tumor growth in NUDE mice; assay type: in vivo; details: IMR-32 tumors in NUDE mice, orally once daily, 5/2 on/off schedule
Protocol: IMR-32 tumors were implanted in NUDE mice and Compound E and retinoic acid was administered orally once daily at the indicated doses on a 5/2 on/off schedule.

SK-N-BE(2) cells [1] = experiment: Cell viability (Promega CellTiter Glo assay); assay type: cell-based
Protocol: (§1) Cells were cultured for 48 hours at the indicated concentration of drug, and then cell viability was measured by Promega CellTiter Glo assay and caspase activity was measured by Promega Caspase3/7 Glo assay. […] Anti-tumor activity is evident at 3 μM of treatment.

neuroblastoma cells [2] = experiment: Neuroblastoma proliferation, manual cell counts over 7 days; assay type: cell-based; details: 0.75 μM and 2 μM, counted at days 3, 5 and 7
Protocol: Cells were cultured over a 7 day period and manually counted at days 3, 5, and 7.

neuroblastoma cells [3] = details: MTS assay, FIGS. 27 and 28
Protocol: Viable cells were measured in an MTS assay and the combination index (CI) was calculated using the Chou-Talaay method.

SK-N-BE(2) cells [4] = experiment: Caspase activity (Promega Caspase3/7 Glo assay); assay type: cell-based; details: 1 μM, 48 hours
Protocol: as §1

HDAC2 = HDAC2 (Homo sapiens, UniProt Q92769); experiment: Biochemical activity of isoform-selective HDAC inhibitors, HDAC2; details: biochemical assay
Sequence of HDAC2 (Q92769 whole entry, canonical isoform): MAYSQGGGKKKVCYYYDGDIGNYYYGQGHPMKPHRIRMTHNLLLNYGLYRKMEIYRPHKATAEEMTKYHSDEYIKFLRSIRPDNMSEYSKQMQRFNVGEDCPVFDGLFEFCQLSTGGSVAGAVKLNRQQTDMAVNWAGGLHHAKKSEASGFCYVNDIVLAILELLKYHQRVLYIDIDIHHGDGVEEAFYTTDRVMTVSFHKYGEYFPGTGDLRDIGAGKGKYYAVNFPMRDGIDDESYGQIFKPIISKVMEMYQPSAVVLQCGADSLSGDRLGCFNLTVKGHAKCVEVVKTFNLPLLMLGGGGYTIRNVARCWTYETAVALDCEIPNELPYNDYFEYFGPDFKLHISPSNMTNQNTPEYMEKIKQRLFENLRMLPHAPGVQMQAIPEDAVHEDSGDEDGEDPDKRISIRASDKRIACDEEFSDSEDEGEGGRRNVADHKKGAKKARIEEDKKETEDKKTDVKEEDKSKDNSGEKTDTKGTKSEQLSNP

neuroblastoma cells [5] = experiment: Long term growth assay (15, 20, 25 days, Crystal Violet); assay type: cell-based; details: 1 μM of exposure, single agent; FIG. 11
Protocol: Cells were cultured for 15, 20 or 25 days with the indicated treatments. Cells were imaged on an inverted microscope at days 15 and 20. On day 25, the cells were stained with Crystal Violet dye and imaged by cell phone camera Importantly, the combination of ATRA and Compound B suppressed the growth of ATRA-resistant colonies.
Cells were cultured for 15, 20 or 25 days with the indicated treatments. Cells were imaged on an inverted microscope at days 15 and 20. On day 25, the cells were stained with Crystal Violet dye and imaged.
Cells were cultured for 15, 20 or 25 days with the indicated treatments. Cells were imaged on an inverted microscope at days 15 and 20. On day 25, the cells were stained with Crystal Violet dye and imaged. It was observed that the combination activity is mediated by HDAC1/2i.
Neuroblastoma cells were treated with Compound B or the HDAC3-selective inhibitor Compound C in a long term growth assay.

HDAC1 = HDAC1 (Homo sapiens, UniProt Q13547); experiment: Biochemical activity of isoform-selective HDAC inhibitors, HDAC1; details: biochemical assay
Sequence of HDAC1 (Q13547 whole entry, canonical isoform): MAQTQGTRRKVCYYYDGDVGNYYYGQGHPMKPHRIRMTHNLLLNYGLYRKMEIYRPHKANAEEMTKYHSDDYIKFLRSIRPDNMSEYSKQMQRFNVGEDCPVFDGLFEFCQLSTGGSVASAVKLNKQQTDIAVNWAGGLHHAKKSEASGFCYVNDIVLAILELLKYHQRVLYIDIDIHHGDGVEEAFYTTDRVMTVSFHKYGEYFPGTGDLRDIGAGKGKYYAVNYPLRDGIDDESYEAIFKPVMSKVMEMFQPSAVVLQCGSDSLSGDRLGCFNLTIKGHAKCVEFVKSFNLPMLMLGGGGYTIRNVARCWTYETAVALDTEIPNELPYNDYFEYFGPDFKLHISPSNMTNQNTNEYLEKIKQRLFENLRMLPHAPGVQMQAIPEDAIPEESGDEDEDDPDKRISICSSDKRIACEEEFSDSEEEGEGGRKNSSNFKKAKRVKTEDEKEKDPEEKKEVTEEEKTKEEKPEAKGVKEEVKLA

neuroblastoma cells [6] = experiment: Cell cycle analysis (Click-iT EdU and FxCycle PI/RNase staining); assay type: cell-based; details: 7 days
Protocol: Cells were cultured for 7 days with the indicated treatments and then stained with the Invitrogen Click-iT EdU kit and the Invitrogen FxCycle […] kits to assess frequency of cells in each stage of the cell cycle. […] The effect is enhanced by Compound B in a dose dependent manner.
In combination with ATRA, the effect on p21 is enhanced at concentrations that induce gene expression changes consistent with differentiation. At 7 days of treatment, combination effects are observed on the cell cycle, with a decreasing frequency of s-phase cells and an increasing sub-G1 population (FIG. 6B). […] EDU is increased in cells in s-phase while PI intensity indicates relative levels of DNA. Using these metrics, we illustrate the frequency of cells in the indicated states of the cell cycle.

AKT and c-RAF = experiment: Levels of AKT and c-RAF; assay type: cell-based; details: SK-N-BE2 cells; 3 days in culture
Protocol: The levels of AKT and c-RAF were assessed following treatment (SK-N-BE2 cells; 3 days in culture) with DMSO (control), Compound B alone, ATRA alone, and Compound B in combination with ATRA. Activated AKT is increased by ATRA and reduced in the combination setting with Compound B. Compound B as a single agent, and in combination with ATRA, decreases cRAF phosphorylation at residue Ser259.

SK-N-BE2 cells = experiment: Levels of proteins related to cell-cycle progression; assay type: cell-based; details: 3 days in culture
Protocol: The levels of proteins related to cell-cycle progression were assessed following treatment (SK-N-BE2 cells; 3 days in culture) with DMSO (control), Compound B alone, ATRA alone, and Compound B in combination with ATRA. p21 is increased by ATRA and enhanced by Compound B. Cyclin D1 is decreased in the combination setting relative to ATRA as a single agent. CDK2 and CDK4 are decreased in the combination setting with Compound B and ATRA.

neuroblastoma cells [7] = experiment: Morphology changes / dendrite outgrowth by inverted microscope; assay type: cell-based; details: 3, 5 and 7 days
Protocol: Cells were cultured for 3, 5, and 7 days with the indicated treatments. Images were captured on an inverted microscope.

SK-N-BE(2) cells [8] = experiment: Microarray gene expression and gene set enrichment analysis; assay type: cell-based, Homo sapiens; details: 3 μM Compound B, 1 μM ATRA or combination, microarray 48 hr, fold relative to the DMSO control group
Protocol: Gene expression from cells treated with ATRA single agent and combination of ATRA and HDAC1/2i were assessed at 2 hrs and 48 hrs of treatment (FIG. 12A). […] A function analysis of the data using the Ingenuity IPA platform was performed by Qiagen; overlap is observed in the top hits between treatment groups.
Genes that statistically increase over 2-fold relative to the DMSO control were mapped on a Venn diagram (FIG. 12B).
Neuroblastoma cell line SK-N-BE(2) cells were treated with 3 μM Compound B, 1 μM ATRA, or a combination of both at 37° C. over 2 hours (FIG. 12A) or 48 hours (FIG. 12B) and compared to the solvent (DMSO) control.

[9] = tested on: retinoic acid receptor (RAR); experiment: Retinoic acid receptor ChIP-seq; assay type: cell-based; details: 3 μM Compound B, 48 hours
Source text: Retinoic acid receptor active binding sites defined in any individual treatment group by ChIP-seq at 48 hrs after treatment were stacked (y-axis) and aligned to the center of the binding peak (x-axis) (FIG. 13). […] Many of the genes found near region 1 binding sites are involved in regulation of retinoid signaling and are transcription factors that drive differentiation (Table 10).
Regions 1-7 of FIG. 13 are defined relative to DMSO: 1, [Combo] Increased; 2, [ATRA] Increased; 3, [ATRA] [Combo] Increased; 4, [Combo] [ATRA] [Compound B] Increased; 5, [Combo] [ATRA] Decreased; 6, [Compound B] Decreased; and 7, [Compound B] [Combo] [ATRA] Decreased.
Neuroblastoma cell line SK-N-BE(2) cells were treated with 3 μM Compound B, 1 μM ATRA, or a combination of both at 37° C. over 48 hours and compared to the solvent (DMSO) control. Antibodies to pan-retinoic acid receptor were used to pull down DNA associated with the receptor binding and sequenced. Lists of binding regions were mapped to the chromosome and “associated” with a given gene if the binding region was located within 10,000 bp up- or down-stream of the gene in question. Binding regions were represented as a heatmap where the sites were stacked on the y-axis across treatments, the “0” mark on the x-axis is the center of the binding peak and the intensity of signal indicated by color. The bracketed regions are areas of statistical significance relative to the DMSO control as indicated on the plot.
Table 12 lists the genes returned when the following conditions are met: 1) combo peak height >4 fold relative to the DMSO control group, and 2) combo expression >4 fold relative to the DMSO control group.

[10] = SK-N-BE(2) cells, 1 μM ATRA or combination, fold relative to the DMSO control group

SMILES: Nc1ccc(-c2cccs2)cc1NC(=O)c1ccc2nc(N3CCNCC3)ccc2c1 [Compound E]
tumor growth (IMR-32 tumors): dose-dependent trend toward reduced tumor growth

SMILES: O=C(CCCCCCNC(=O)c1cnc(N(c2ccccc2)c2ccccc2Cl)nc1)NO [Compound A, 2-((2-chlorophenyl)(phenyl)amino)-N-(7-(hydroxyamino)-7-oxoheptyl)pyrimidine-5-carboxamide]
cell death (SK-N-BE(2) cells [1]; 1 μM, 48 hours): Minimal
anti-tumor activity (SK-N-BE(2) cells [1]; 3 μM, 48 hours): evident
proliferation, single agent (neuroblastoma cells [2]): can suppress proliferation similar to ATRA
cytotoxic effect on neuroblastoma cells as a single agent (neuroblastoma cells [3]): has a cytotoxic effect
caspase 3/7 induction (SK-N-BE(2) cells [4]): Minimal

IC50 (HDAC2): 0.619 µM
IC50 (HDAC1): 2 µM
SMILES: Nc1cc(F)ccc1NC(=O)c1cnc2c(C3CC3)c(N3CCNCC3)ccc2c1 [Compound C, N-(2-amino-4-fluorophenyl)-8-cyclopropyl-7-(piperazin-1-yl)quinoline-3-carboxamide]
neuroblastoma cell growth in long term growth assay (neuroblastoma cells [5]): required higher concentrations to mediate a similar effect

SMILES: CC1=C(/C=C/C(C)=C/C=C/C(C)=C/C(=O)O)C(C)(C)CCC1 [ATRA, all-trans-retinoic acid, reference compound]
effect of added ATRA on HDAC1/2i mediated toxicity (SK-N-BE(2) cells [1]; addition of 1 μM or 3 μM of ATRA to Compound B, FIG. 2A): little effect
cell cycle stage frequency, single agent (neuroblastoma cells [6]): reduces s-phase frequency and increases the sub-G1 population
activated AKT (AKT and c-RAF): increased
p21 level (SK-N-BE2 cells): increased
morphology / dendrite outgrowth (neuroblastoma cells [7]): caused the outgrowth of dendrites over time
cytotoxic effect on neuroblastoma cells as a single agent (neuroblastoma cells [3]): has a cytotoxic effect
Gene Expression Change, ACSL3 (SK-N-BE(2) cells [8]): 1.68
Gene Expression Change, ATP7A (SK-N-BE(2) cells [8]): 4.30
Gene Expression Change, CDKN1A (SK-N-BE(2) cells [8]): 1.25
Gene Expression Change, CRABP2 (SK-N-BE(2) cells [8]): 12.15
Gene Expression Change, CTSH (SK-N-BE(2) cells [8]): 2.40
Gene Expression Change, CYP26A1 (SK-N-BE(2) cells [8]): 7.84
Gene Expression Change, CYP26B1 (SK-N-BE(2) cells [8]): 116.67
Gene Expression Change, DHRS3 (SK-N-BE(2) cells [8]): 24.14
Gene Expression Change, DUSP6 (SK-N-BE(2) cells [8]): 8.59
Gene Expression Change, ETS1 (SK-N-BE(2) cells [8]): 3.50
Gene Expression Change, HSPA5 (SK-N-BE(2) cells [8]): 1.48
Gene Expression Change, IER3 (SK-N-BE(2) cells [8]): 3.75
Gene Expression Change, NFKBIZ (SK-N-BE(2) cells [8]): 2.85
Gene Expression Change, PCDH18 (SK-N-BE(2) cells [8]): 3.98
Gene Expression Change, PTGER2 (SK-N-BE(2) cells [8]): 2.48
Gene Expression Change, RARB (SK-N-BE(2) cells [8]): 3.91
Gene Expression Change, RET (SK-N-BE(2) cells [8]): 10.78
RAR Binding (Peak Height), ACSL3 [9, 10]: 1.00
RAR Binding (Peak Height), ATP7A [9, 10]: 4.60
RAR Binding (Peak Height), CDKN1A [9, 10]: 4.75
RAR Binding (Peak Height), CRABP2 [9, 10]: 3.15
RAR Binding (Peak Height), CTSH [9, 10]: 5.42
RAR Binding (Peak Height), CYP26A1 [9, 10]: 7.00
RAR Binding (Peak Height), CYP26B1 [9, 10]: 11.50
RAR Binding (Peak Height), DHRS3 [9, 10]: 7.50
RAR Binding (Peak Height), DUSP6 [9, 10]: 4.00
RAR Binding (Peak Height), ETS1 [9, 10]: 3.99
RAR Binding (Peak Height), HSPA5 [9, 10]: 2.00
RAR Binding (Peak Height), IER3 [9, 10]: 6.83
RAR Binding (Peak Height), NFKBIZ [9, 10]: 4.00
RAR Binding (Peak Height), PCDH18 [9, 10]: 3.50
RAR Binding (Peak Height), PTGER2 [9, 10]: 2.13
RAR Binding (Peak Height), RARB [9, 10]: 2.20
RAR Binding (Peak Height), RET [9, 10]: 8.86
RAR binding to chromatin ([9]; SK-N-BE(2), 1 μM ATRA, vs DMSO): increased RAR binding
